The text below walks through data of patent publication US12296030B2, “Conjugates and their use as imaging agents” (priority 2019, dated 2025).

SMILES strings stand for the structures.

One experiment has as its system nodal metastases. Briefly: FDG-PET in patient 3. The format is in vivo, human. The note with it: patient 3, 60 min after 256 MBq.
The subject of the next experiment is angiogenesis. Particulars: in vivo; cited from earlier work.
Experiment [1] has as its system quiescent endothelial cells. The note with it: in vitro; cited from earlier work.
For another experiment, the system named is proliferating cells. The note with it: cited from earlier work.

For the compound `O=C[C@H](F)[C@@H](O)[C@H](O)[C@H](O)CO` [FDG, 2-fluoro-2-deoxyglucose], the FDG-PET finding entry with nodal metastases was “two intensely metabolically active nodal metastases”.
`N[C@@H](CCC(=O)N[C@@H](CSCC(=O)Nc1ccc([As](O)O)cc1)C(=O)NCC(=O)O)C(=O)O` [GSAO, 4-(N—(S-glutathionylacetyl)amino)phenylarsenous acid]: the effect on angiogenesis result with angiogenesis is recorded as “inhibits angiogenesis in vivo”. Further, the “toxicity to quiescent endothelial cells” value in experiment [1] is reported as “nontoxic”. Besides, in the experiment on proliferating cells, the “toxicity to proliferating cells” value is listed as “toxic”.
